# Biological target: T1, CDK9 (Inactive) (Homo sapiens, UniProt P50750)
# T1 construct: purchased Thermo Fisher Scientific (Life Technologies) SelectScreen
# Test: SelectScreen LanthaScreen
# Type: binding
# Settings: read-out: % displacement
# In short: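 NU5455 was profiled across the SelectScreen Broad panel of kinase activity and binding assays. Z'LYTE reactions such as CSF1R ran at apparent Km ATP, while the Adapta CAMK1 assay used ATP listed as 10. Values are given as percent.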
# T1 sequence (P50750 whole entry): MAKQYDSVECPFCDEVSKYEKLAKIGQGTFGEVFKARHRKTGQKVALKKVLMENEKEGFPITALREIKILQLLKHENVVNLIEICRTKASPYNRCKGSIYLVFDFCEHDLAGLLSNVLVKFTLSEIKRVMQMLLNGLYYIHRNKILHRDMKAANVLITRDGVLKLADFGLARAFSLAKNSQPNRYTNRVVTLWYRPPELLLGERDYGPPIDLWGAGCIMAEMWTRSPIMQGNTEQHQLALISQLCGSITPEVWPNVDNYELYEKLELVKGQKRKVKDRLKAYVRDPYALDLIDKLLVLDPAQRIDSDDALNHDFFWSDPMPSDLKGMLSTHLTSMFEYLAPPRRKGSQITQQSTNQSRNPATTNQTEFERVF
smiles,measurement,value
CN(C(=O)CN1CCOCC1)c1ccc2sc3c(-c4cccc5c(=O)cc(N6CC7CCC(C6)O7)oc45)cccc3c2c1 [NU5455],inhibition at 1 µM,9%

# Reference: article PMC6934184, “Selective DNA-PKcs inhibition extends the therapeutic index of localized radiotherapy and chemotherapy” (The Journal of Clinical Investigation, 2019)
